Here are results for twelve compounds from patent US10238637B2, “Modulators of the adenosine A3 receptors” (PALOBIOFARMA, S.L., priority 2015, dated 2019).

Some results are limits rather than exact numbers.

The Ki is a dissociation constant, usually derived from enzyme kinetics or from competition with a known ligand.

One data set addresses T1, adenosine A1 receptor (Homo sapiens, UniProt P30542).
T1 construct: purchased Receptor Biology, Inc. (USA)
T1 sequence (P30542 1-326): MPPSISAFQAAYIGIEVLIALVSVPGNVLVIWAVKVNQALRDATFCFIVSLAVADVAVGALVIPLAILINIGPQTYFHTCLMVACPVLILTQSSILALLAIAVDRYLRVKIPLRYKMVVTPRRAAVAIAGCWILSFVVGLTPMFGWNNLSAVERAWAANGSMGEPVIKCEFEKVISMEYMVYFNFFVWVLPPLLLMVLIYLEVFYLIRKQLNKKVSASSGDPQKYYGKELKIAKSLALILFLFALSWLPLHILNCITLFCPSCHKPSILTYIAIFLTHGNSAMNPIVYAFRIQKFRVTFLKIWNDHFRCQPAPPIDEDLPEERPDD
Nature of the data set: Adenosine receptor subtypes competition radioligand binding assay, A1 receptor. As to conditions: human recombinant membranes. The source says: (§1) Adenosine Receptor Subtypes Competition Radioligand Binding Assay
(§2) Human recombinant membranes with adenosine receptors were purchased from Receptor Biology, Inc. (USA).

A further data set concerns the target T2, human A3 receptors (Homo sapiens, UniProt P0DMS8).
T2 construct: purchased Receptor Biology, Inc. (USA); host or cells: CHO cells
T2 sequence (P0DMS8 1-318): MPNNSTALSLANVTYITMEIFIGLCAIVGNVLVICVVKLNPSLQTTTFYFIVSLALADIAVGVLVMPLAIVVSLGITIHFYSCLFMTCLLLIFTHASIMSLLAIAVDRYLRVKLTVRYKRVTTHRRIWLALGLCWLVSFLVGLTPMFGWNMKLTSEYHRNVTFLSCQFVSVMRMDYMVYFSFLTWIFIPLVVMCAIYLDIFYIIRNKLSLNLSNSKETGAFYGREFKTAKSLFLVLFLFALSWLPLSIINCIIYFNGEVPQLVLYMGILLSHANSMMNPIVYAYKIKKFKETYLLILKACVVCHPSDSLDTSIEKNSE
Nature of the data set: Adenosine receptor subtypes competition radioligand binding assay, A3 receptor ([3H]-NECA). As to conditions: membranes from human A3 receptors transfected to CHO cells, 60 min at 25° C. On the procedure: as §1, §2
Competitive assays were carried out by incubation of membranes from human A3 receptors transfected to CHO cells, [^3H]-NECA, buffer (20 mM HEPES (pH 7.4), 100 mM NaCl, 10 mM MgCl2, 2 units/ml adenosine deaminase), and unlabelled ligand in a total volume of 0.2 ml for 60 min at 25° C. R-PIA was used to determine nonspecific binding. It was filtered over Schleicher & Schuell GF/52 (presoaked with 0.5% polyethyleneimine) in a Brandel cell harvester. The unbound radioligand was removed with 3×250 μl of 20 mM HEPES (pH 7.4), 100 mM NaCl, 10 mM MgCl2.
In Table 1, binding constants to adenosine A3 receptor obtained for some examples are shown.

Data set [1] concerns ischemia induced renal failure. Conditions: rats, ischemia induced with micro aneurysm clips after pretreatment; cited from earlier work.
In another data set the test system is rheumatoid arthritis. Conditions: RA patients, oral administration twice daily for 12 weeks; cited from earlier work.
For data set [2], the system named is intestinal inflammation and spontaneous colitis. Conditions: mice; cited from earlier work.
Data set [3] relates to experimental autoimmune uveitis. Conditions: experimental autoimmune uveitis model; cited from earlier work.

For the compound `N#Cc1sc(NC(=O)c2ccc(C(=O)O)s2)nc1-c1ccc(F)cc1` [Example 13, 5-(5-cyano-4-(4-fluorophenyl)thiazol-2-ylcarbamoyl)thiophene-2-carboxylic Acid], the Ki at adenosine A1 receptor amounted to 131 nM; at human A3 receptors, 66 nM.

Regarding `COc1ccc(-c2nc(NC(=O)c3ccc(C(=O)O)s3)sc2C#N)cc1` [Example 8, 5-(5-cyano-4-(4-methoxyphenyl)thiazol-2-ylcarbamoyl)thiophene-2-carboxylic Acid], the Ki at adenosine A1 receptor is above 1000 nM; on human A3 receptors, 23 nM.

Regarding `O=C(O)c1ccc(C(=O)Nc2nc(-c3ccccc3)c(F)s2)s1` [Example 41, 5-(5-fluoro-4-phenylthiazol-2-ylcarbamoyl)thiophene-2-carboxylic Acid], the Ki at adenosine A1 receptor stood at 64 nM; at human A3 receptors, 10 nM.

As to `CNC(=O)[C@H]1O[C@@H](n2cnc3c(NCc4cccc(I)c4)ncnc32)[C@H](O)[C@@H]1O` [IB-MECA, N6-(3-iodobenzyl)-adenosine-5′-N-methyluronamide], the “Effect of pretreatment on ischemia induced renal failure” value in data set [1] was “harmful”. In the data set with rheumatoid arthritis, the “Effect on disease signs and symptoms” value was “improvement of disease signs and symptoms”; the Safety and tolerability entry was “safe, well tolerated”. In addition, the “Effect on intestinal inflammation and spontaneous colitis” value in data set [2] is “ameliorate intestinal inflammation and spontaneous colitis”. In data set [3], the “Effect on clinical and pathological manifestations of uveitis” value is “inhibited the clinical and pathological manifestations of uveitis”.

Consider `COc1ccc(-c2nc(NC(=O)c3ccc(C(=O)O)s3)sc2Cl)cc1` [Example 44, 5-(5-chloro-4-(4-methoxyphenyl)thiazol-2-ylcarbamoyl)thiophene-2-carboxylic Acid], for which the results for the Ki on adenosine A1 receptor and at human A3 receptors were above 1000 nM and 24 nM, respectively.

Turning to `N#Cc1sc(NC(=O)c2ccc(C(=O)O)s2)nc1-c1ccccc1` [Example 22, 5-(5-cyano-4-phenylthiazol-2-ylcarbamoyl)thiophene-2-carboxylic Acid], the Ki at adenosine A1 receptor was 87 nM; at human A3 receptors it was 66 nM.

Regarding `COc1ccc(-c2nc(NC(=O)c3cccc(C(=O)O)c3)sc2C#N)cn1` [Example 37, 3-(5-cyano-4-(6-methoxypyridin-3-yl)thiazol-2-ylcarbamoyl)benzoic Acid], the Ki on adenosine A1 receptor was above 1000 nM; on human A3 receptors it was 99 nM.

Turning to `N#Cc1sc(NC(=O)c2ccc(C(=O)O)s2)nc1-c1ccccc1F` [Example 15, 5-(5-cyano-4-(2-fluorophenyl)thiazol-2-ylcarbamoyl)thiophene-2-carboxylic Acid], the Ki at adenosine A1 receptor is above 500 nM; at human A3 receptors, 99 nM.

The compound `N#Cc1sc(NC(=O)c2ccc(C(=O)O)s2)nc1-c1cc(Cl)cs1` [Example 26, 5-((4-(4-chlorothiophen-2-yl)-5-cyanothiazol-2-yl)carbamoyl)thiophene-2-carboxylic Acid] registered a Ki at human A3 receptors of 12 nM.

Take `O=C(O)c1ccc(C(=O)Nc2nc(-c3ccccc3)c(Cl)s2)s1` [Example 38, 5-(5-chloro-4-phenylthiazole-2-ylcarbamoyl)thiophene-2-carboxylic Acid]: the figures for the Ki on adenosine A1 receptor and at human A3 receptors were 34 nM and 21 nM, respectively.

With `N#Cc1sc(NC(=O)c2ccc(C(=O)O)s2)nc1-c1cccs1` [Example 25, 5-((5-cyano-4-(thiophen-2-yl)thiazol-2-yl)carbamoyl)thiophene-2-carboxylic Acid], the affinity at human A3 receptors, expressed as Ki, was 36 nM.

As for `COc1ccc(-c2nc(NC(=O)c3cccc(C(=O)O)c3)sc2C#N)cc1` [Example 6, 3-(5-cyano-4-(4-methoxyphenyl)thiazol-2-ylcarbamoyl)benzoic Acid], the Ki on adenosine A1 receptor was above 1000 nM; on human A3 receptors, 10 nM.
